The results in this text go back to patent publication US12509451B2, “Heteroaryl amide inhibitors of CD38” (NAPA THERAPEUTICS LTD., priority 2020, dated 2025).

Each structure is given as a SMILES string.

The target of assay [1] is T1, recombinant human CD38 Protein (Homo sapiens, UniProt P28907).
T1 construct: purchased R&D System
T1 sequence (P28907 1-300): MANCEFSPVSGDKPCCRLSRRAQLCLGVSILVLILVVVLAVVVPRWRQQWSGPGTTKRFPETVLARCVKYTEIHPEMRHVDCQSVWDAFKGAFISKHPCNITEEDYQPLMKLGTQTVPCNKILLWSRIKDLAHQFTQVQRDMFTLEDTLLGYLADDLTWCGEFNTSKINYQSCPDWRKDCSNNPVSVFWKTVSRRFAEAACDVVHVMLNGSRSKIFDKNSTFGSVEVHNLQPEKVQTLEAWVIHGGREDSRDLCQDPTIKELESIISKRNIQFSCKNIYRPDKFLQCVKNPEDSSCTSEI
Put plainly: Fluorescence-based NAD+ hydrolase activity assay with human recombinant CD38 protein (Assay 3). The assay is classed as biochemical. The following applies: read-out: Assay 3 Arithmetic mean IC50. A digest of the protocol:
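Recombinant human CD38, 10 ng/well in sucrose-Tris buffer (0.25 M sucrose, 40 mM Tris pH 7.4), with compound at 8 final concentrations from 400 nM to 25.6 pM; reaction started with 80 μM etheno-NAD+.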

In assay [2] the target is T1, recombinant human CD38 Protein. The assay can be described thus: Fluorescence-based NAD+ cyclase activity assay with human recombinant CD38 protein (Assay 2). The assay is classed as biochemical. The following applies: read-out: Assay 2 Arithmetic mean IC50. An outline of the steps:
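Recombinant human CD38 (125 ng/well) in sucrose-Tris buffer pH 7.4 with compound (8 final concentrations, 2 μM to 0.64 nM); reaction started with 150 μM NGD+.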

Consider `O=C(Nc1ccnc(C(F)(F)F)c1)c1cc(C2CC2)nc(-n2ccnc2)n1` [Compound 51, 6-cyclopropyl-2-(1H-imidazol-1-yl)-N-(2-(trifluoromethyl)pyridin-4-yl)pyrimidine-4-carboxamide], for which the IC50 in assay [1] was below 1 nM; in assay [2], 51 to 1000 nM.

For `Cc1cc(C(=O)Nc2ccncc2)nc(-n2ccnc2)c1` [Compound 52, 6-(1H-imidazol-1-yl)-4-methyl-N-(pyridin-4-yl)picolinamide], the IC50 in assay [1] and in assay [2] was 1 to 50 nM in each case.

`Cc1cc(C(=O)Nc2cccnc2)nc(-n2ccnc2)c1` [Compound 53]: the IC50 in assay [1] fell in the range of 1 to 50 nM; in assay [2], 51 to 1000 nM.

Consider `Cc1cc(C(=O)Nc2ccc(C(N)=O)nc2)nc(-n2ccnc2)c1` [Compound 54, N-(6-carbamoylpyridin-3-yl)-6-(1H-imidazol-1-yl)-4-methylpicolinamide], for which the IC50 in assay [1] and in assay [2] was 1 to 50 nM throughout.

As for `Cc1cc(C(=O)Nc2ccnc(C(N)=O)c2)nc(-n2ccnc2)c1` [Compound 55], the IC50 in assay [1] is below 1 nM; in assay [2], 51 to 1000 nM.

Take `CNC(=O)c1cc(NC(=O)c2cc(C)cc(-n3ccnc3)n2)ccn1` [Compound 56]: the IC50 in assay [1] was in the range of 1 to 50 nM; in assay [2], 51 to 1000 nM.

For the molecule `CNC(=O)c1ccc(NC(=O)c2cc(C)cc(-n3ccnc3)n2)cn1` [Compound 57], the IC50 in assay [1] is below 1 nM; in assay [2], 1 to 50 nM.

Turning to `Cc1ccc(-n2ccnc2)nc1C(=O)Nc1cccnc1` [Compound 59, 6-(1H-imidazol-1-yl)-3-methyl-N-(pyridin-3-yl)picolinamide], the IC50 in assay [1] was in the range of 1 to 50 nM; in assay [2] it was 51 to 1000 nM.

`O=C(Nc1cccnc1)c1ccc(F)c(-n2ccnc2)n1` [Compound 61]: the IC50 was 1 to 50 nM in assay [1] and 1000 to 10000 nM in assay [2].

For the molecule `O=C(Nc1cccnc1)c1nc(-n2ccnc2)ccc1F` [Compound 62], the values for the IC50 in assay [1] and in assay [2] were 1 to 50 nM and 1000 to 10000 nM, respectively.

As for `Nc1cc(C(=O)Nc2cccnc2)nc(-n2ccnc2)c1` [Compound 67], the IC50 in assay [1] was in the range of 1 to 50 nM; in assay [2], 51 to 1000 nM.
